Test results taken from US9006467B2, “1,2,3-triazole containing artemisinin compounds and process for preparation thereof” (Councel of Scientific & Industrial Research, priority 2011, dated 2015).

What was measured:
leukaemia THP-1 = assay: In vitro cytotoxicity against human cancer cell lines (sulforhodamine B), leukaemia THP-1; assay type: cell-based; conditions: 48 hours, read-out: % GROWTH INHIBITION leukaemia THP-1; for inhibition at 10 µM: 1 × 10^−5 M; for inhibition at 50 µM: 5 × 10^−5 M
Protocol: (§1) The human cancer cell lines procured from National Cancer Institute, Frederick, U.S.A., were used in present study. Cells were grown in tissue culture flasks in complete growth medium (RPMI-1640 medium with 2 mM glutamine, 100 μg/mL streptomycin, pH 7.4, sterilized by filtration and supplemented with 10% fetal bovine serum and 100 units/ml penicillin before use) at 37 QC in an atmosphere of 5% CO2 and 90% relative humidity in a carbon dioxide incubator. The cells at subconfluent stage were harvested from the flask by treatment with trypsin (0.05% in PBS containing 0.02% EDTA) for determination of cytotoxicity. The cell suspension of the required cell density was prepared in complete growth medium with gentamycin (50 μg/mL) for determination of cytotoxicity.
(§2) Stock solutions of 2×10^−2M of test materials were prepared in DMSO. The stock solutions were serially diluted with complete growth medium containing 50 μg/ml of gentamycin to obtain working test solution of 2×10^−5M to obtain final concentration of 1×10^−5M respectively.
(§3) In vitro cytotoxicity against human cancer cell lines was determined (Monks et al., J. Natl. Cancer Inst. 1991, 83, 757-766). The 100 μL of cell suspension was added to each well of the 96-well tissue culture plate. The cells were incubated for 24 hours (at 37° C. in an atmosphere of 5% CO2 and 90% relative humidity in a carbon dioxide incubator). Test materials in complete growth medium (100 μL) were added after 24 hours incubation to the wells containing cells. The plates were further incubated for 48 hours in a carbon dioxide incubator after addition of test material. The cell growth was stopped by gently layering trichloroacetic acid (50 μL, 50% w/v) on top of the medium in all the wells. The plates were incubated at 4° C. for one hour to fix the cells attached to the bottom of the wells. The liquid of all the wells was then gently decanted and discarded. The plates were washed five times with distilled water and air-dried. Cell growth was measured by staining with sulforhodamine B dye (Skehan et al., J. Natl. Cancer Inst. 1990, 82, 1107-1112). The adsorbed dye was dissolved in Tris-Buffer (100 μL, 0.01M, pH 10.4) and plates were gently stirred for 10 minutes on a mechanical stirrer. The optical density (OD) was recorded on ELISA reader at 540 nm.
(§4) The cell growth was calculated by subtracting mean OD value of respective blank from the mean OD value of experimental set. Percent growth in presence of test material was calculated considering the growth in absence of any test material as 100% and in turn percent growth inhibition in presence of test material was calculated. Suitable blank, controls and positive controls were included in the study.

[1] = test system: colon HCT-15 human cancer cell line; assay: In vitro cytotoxicity against human cancer cell lines (sulforhodamine B), colon HCT-15; assay type: cell-based; conditions: 48 hours, read-out: % GROWTH INHIBITION colon HCT-15; for inhibition at 50 µM: 5 × 10^−5 M
[2] = test system: colon HCT-15 human cancer cell line; assay: as above; assay type: cell-based; conditions: 1 × 10^−5 M, 48 hours, read-out: % GROWTH INHIBITION colon HCT-15
Protocol: as §1, §2, §3, §4

Lung cancer cell A-549 = assay: In vitro cytotoxicity against human cancer cell lines (sulforhodamine B), Lung A-549; assay type: cell-based; conditions: 48 hours, read-out: % GROWTH INHIBITION Lung A-549; for inhibition at 10 µM: A549, 1 × 10^−5 M; for inhibition at 50 µM: A549, 5 × 10^−5 M
Protocol: as §1, §2, §3, §4

[3] = test system: Ehrlich ascites tumor (EAT) cells; conditions: MTT assay, read-out: IC50 (drug concentration causing 50% growth inhibition of the tumor cells); cited from earlier work
P388 leukemia = conditions: NCI Report on NSC 369397; cited from earlier work
[4] = test system: cell line panels consisting of 60 lines; conditions: nine disease-related subpanels; cited from earlier work
CMV [5] = conditions: cited from earlier work
[6] = test system: human liver cell line of HEP-2 type; assay: In vitro cytotoxicity against human cancer cell lines (sulforhodamine B), Liver HEP-2; assay type: cell-based; conditions: 1 × 10^−5 M, 48 hours
Protocol: as §1, with “The cell suspension of the required cell density was prepared in complete growth medium with gentamycin (50 μg/mL) for determination of cytotoxicity.” left out
In vitro cytotoxicity against human cancer cell lines was determined (Monks et al., J. Natl. Cancer Inst. 1991, 83, 757-766). […] Cell growth was measured by staining with sulforhodamine B dye (Skehan et al., J. Natl. Cancer Inst. 1990, 82, 1107-1112). […] The optical density (OD) was recorded on ELISA reader at 540 nm.
as §4, with “Suitable blank, controls and positive controls were included in the study.” left out

CMV [7] = conditions: cited from earlier work; remark: listed apart in the source

Row | SMILES | inhibition at 10 µM [2] [%] | inhibition at 10 µM (Lung cancer cell A-549) [%] | inhibition at 50 µM (Lung cancer cell A-549) [%] | inhibition at 50 µM [1] [%] | inhibition at 10 µM (leukaemia THP-1) [%] | inhibition at 50 µM (leukaemia THP-1) [%] | other results
1 | O=c1[nH]cc(F)c(=O)[nH]1 [5-Fluorouracil, reference compound] | – | – | – | – | – | – | inhibition at 20 µM (leukaemia THP-1; 2 × 10^−5 M): 73%; inhibition at 20 µM ([1]; 2 × 10^−5 M): 65%
2 | C[C@@H]1CC[C@H]2[C@@H](C)C(=O)O[C@@H]3O[C@@]4(C)CC[C@@H]1[C@]32OO4 [Artemisinin, artemisinin] | 29 | 19 | 29 | 31 | – | – | IC50 [3]: 29.8 µM; activity against P388 leukemia (P388 leukemia): inactive; anticancer activity in 60 cell line panel [4]: very little anticancer activity; anti-CMV activity, in words (CMV [5]; in-vitro): lower anti-CMV activity compared to artesunate
3 | C[C@H]1[C@H](OCc2cn(-c3ccc(-c4ccc(-n5cc(CO[C@@H]6O[C@@H]7O[C@@]8(C)CC[C@H]9[C@H](C)CC[C@@H]([C@H]6C)[C@@]79OO8)nn5)cc4)cc3)nn2)O[C@@H]2O[C@@]3(C)CC[C@H]4[C@H](C)CC[C@@H]1[C@@]24OO3 [Compound 12] | 75 | 56 | 64 | 78 | 75 | 80 | –
4 | C[C@H]1[C@H](OCCc2cn(-c3ccc(-c4ccc(-n5cc(CCO[C@@H]6O[C@@H]7O[C@@]8(C)CC[C@H]9[C@H](C)CC[C@@H]([C@H]6C)[C@@]79OO8)nn5)cc4)cc3)nn2)O[C@@H]2O[C@@]3(C)CC[C@H]4[C@H](C)CC[C@@H]1[C@@]24OO3 [Compound 13] | 56 | 41 | 46 | 66 | 63 | 82 | –
5 | C[C@H]1[C@H](OCc2cn(C3O[C@@H]4O[C@@]5(C)CC[C@H]6[C@H](C)CC[C@@H]([C@H]3C)[C@@]46OO5)nn2)O[C@@H]2O[C@]3(C)CC[C@H]4[C@H](C)CC[C@@H]1[C@@]24OO3 (some centres unmarked) [Compound 14] | – | – | 22 | 63 | – | 62 | –
6 | C[C@H]1[C@H](OCCc2cn(C3O[C@@H]4O[C@@]5(C)CC[C@H]6[C@H](C)CC[C@@H]([C@H]3C)[C@@]46OO5)nn2)O[C@@H]2O[C@]3(C)CC[C@H]4[C@H](C)CC[C@@H]1[C@@]24OO3 (some centres unmarked) [Compound 15] | 66 | 29 | 48 | 70 | 78 | 79 | –
7 | CO[C@@]12[C@H](COC(N)=O)C3=C(C(=O)C(C)=C(N)C3=O)N1C[C@@H]1N[C@@H]12 [Mitomycin-c] | – | – | – | – | – | – | % GROWTH INHIBITION Liver HEP-2 [6]: 58%
8 | C[C@H]1[C@H](OC(=O)CCC(=O)O)O[C@@H]2O[C@@]3(C)CC[C@H]4[C@H](C)CC[C@@H]1[C@@]24OO3 [artesunate, sodium artesunate] | – | – | – | – | – | – | in-vitro inhibition of clinical isolates (CMV [5]; 11.1 μM): 50-80%; cytotoxicity (CMV [5]; CMV replication study): no cytotoxicity; CMV replication in rat CMV model (CMV [7]): inhibit CMV replication
